Like-named read-outs stand apart in the source and are kept apart here.
Tests used:
[1] = Description: During thermo-gravimetric analysis (TGA), the weight of a sample is measured very accurately as the sample is undergoing a temperature program (usually a gradual increase in temperature). Changes in the sample that result in weight differences will be detected, and can be correlated to temperature. This technique was used to investigate the onset temperatures of dehydration and degradation of the nicotine salt.
Table 4 details the temperature program for this study. The sample was heated from 30 to 950° C. under nitrogen (inert gas) or air.

[2] = remark: listed apart in the source
Description: The sample weight was monitored for 20 minutes at probable extrusion temperatures of 50, 55 and 60° C. This duration is longer than expected process time for small batches including hold time in hoppers.

CN1CCCC1c1cccnc1.O.O.O=C(O)C(O)C(O)C(=O)O (centres unmarked) [Nicotine bitartrate dihydrate]
First Event Onset Temperature ([1]; Air purged sample): 73.93 °C
Second Event Onset Temperature ([1]; Air purged sample): 190.23 °C
First Event Onset Temperature ([1]; Nitrogen purged sample): 72.54 °C
Second Event Onset Temperature ([1]; Nitrogen purged sample): 190.78 °C
first TGA event inflection ([1]; scan 30 to 950 °C): 82 °C
first TGA event onset ([1]; scan 30 to 950 °C): 73 °C
second TGA event inflection ([1]; scan 30 to 950 °C): 203 °C
weight loss, first TGA event ([1]; scan 30 to 950 °C): about 4%
weight loss after isothermal hold ([2]; 20 minute hold at 50 °C): 0.497%
weight loss after isothermal hold ([2]; 20 minute hold at 55 °C): 0.678%
weight loss after isothermal hold ([2]; 20 minute hold at 60 °C): 1.147%
